# Measurements taken from ChEMBL document CHEMBL1201862, “PubChem BioAssay data set” (2004).
#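 Protocol summary: plate cells (96-well), add compound at 5 concentrations, incubate 48 h, interpolate endpoints linearly. GI50 is the concentration that inhibits growth by half.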 Activity calls are given as the source filed them. No stated cut-off is given here; in the data, active = GI50 up to about 1.1 µM and inactive = higher.
# Tests used:
# Assay in all cases: DTP human tumour cell line panel, 48 h
# U-251 = tested on: U-251
# ACHN = tested on: ACHN
# A549 = tested on: A549
# SK-OV-3 = tested on: SK-OV-3
# SK-MEL-2 = tested on: SK-MEL-2
# NCI-H226 = tested on: NCI-H226
# SK-MEL-5 = tested on: SK-MEL-5
# COLO 205 = tested on: COLO 205
# 786-0 = tested on: 786-0
# UACC-257 = tested on: UACC-257
# SN12C = tested on: SN12C
# SNB-75 = tested on: SNB-75
# DMS-114 = tested on: DMS-114
# Malme-3M = tested on: Malme-3M
# IGROV-1 = tested on: IGROV-1
# M14 = tested on: M14
# NCI-H522 = tested on: NCI-H522
# HOP-62 = tested on: HOP-62
# NCI-H460 = tested on: NCI-H460
# RXF 393 = tested on: RXF 393
# RPMI-8226 = tested on: RPMI-8226
# CCRF-CEM = tested on: CCRF-CEM
# TK-10 = tested on: TK-10
# HL-60 = tested on: HL-60
# SW-620 = tested on: SW-620
# K562 = tested on: K562
# HOP-18 = tested on: HOP-18
# SF-268 = tested on: SF-268
# M19-MEL = tested on: M19-MEL
# SK-MEL-28 = tested on: SK-MEL-28
# OVCAR-3 = tested on: OVCAR-3
# A498 = tested on: A498
# OVCAR-4 = tested on: OVCAR-4
# HCT-15 = tested on: HCT-15
# HCT-116 = tested on: HCT-116
# UO-31 = tested on: UO-31
# KM-20L2 = tested on: KM-20L2
# LXFL 529 = tested on: LXFL 529
# UACC-62 = tested on: UACC-62
# RXF 631 = tested on: RXF 631
# KM12 = tested on: KM12
# DLD-1 = tested on: DLD-1
# SNB-19 = tested on: SNB-19
# HCC 2998 = tested on: HCC 2998
# MOLT-4 = tested on: MOLT-4
# CAKI-1 = tested on: CAKI-1
# SNB-78 = tested on: SNB-78
# SF-539 = tested on: SF-539
# DMS-273 = tested on: DMS-273
# OVCAR-8 = tested on: OVCAR-8
# SR = tested on: SR
smiles,measurement,setting,value
COC1C2C[C@@H](O)CCC2C(C(=O)OCCl)C[C@H]1O (stereo partly specified),GI50,U-251,> 100 µM (inactive)
same,GI50,ACHN,> 100 µM (inactive)
same,GI50,A549,> 100 µM (inactive)
same,GI50,SK-OV-3,> 100 µM (inactive)
same,GI50,SK-MEL-2,> 100 µM (inactive)
same,GI50,NCI-H226,> 100 µM (inactive)
same,GI50,SK-MEL-5,> 100 µM (inactive)
same,GI50,COLO 205,> 100 µM (inactive)
same,GI50,786-0,> 100 µM (inactive)
same,GI50,UACC-257,> 100 µM (inactive)
same,GI50,SN12C,> 100 µM (inactive)
same,GI50,SNB-75,> 100 µM (inactive)
same,GI50,DMS-114,> 100 µM (inactive)
same,GI50,Malme-3M,> 100 µM (inactive)
same,GI50,IGROV-1,> 100 µM (inactive)
same,GI50,M14,> 100 µM (inactive)
same,GI50,NCI-H522,> 100 µM (inactive)
same,GI50,HOP-62,> 100 µM (inactive)
same,GI50,NCI-H460,> 100 µM (inactive)
same,GI50,RXF 393,> 100 µM (inactive)
same,GI50,RPMI-8226,> 100 µM (inactive)
same,GI50,CCRF-CEM,> 100 µM (inactive)
same,GI50,TK-10,> 100 µM (inactive)
same,GI50,HL-60,> 100 µM (inactive)
same,GI50,SW-620,> 100 µM (inactive)
same,GI50,K562,> 100 µM (inactive)
same,GI50,HOP-18,> 100 µM (inactive)
same,GI50,SF-268,> 100 µM (inactive)
same,GI50,M19-MEL,> 100 µM (inactive)
same,GI50,SK-MEL-28,> 100 µM (inactive)
same,GI50,OVCAR-3,> 100 µM (inactive)
same,GI50,A498,> 100 µM (inactive)
same,GI50,OVCAR-4,> 100 µM (inactive)
same,GI50,HCT-15,> 100 µM
same,GI50,HCT-116,> 100 µM (inactive)
same,GI50,UO-31,> 100 µM (inactive)
same,GI50,KM-20L2,> 100 µM (inactive)
same,GI50,LXFL 529,> 100 µM (inactive)
same,GI50,UACC-62,> 100 µM (inactive)
same,GI50,RXF 631,> 100 µM (inactive)
same,GI50,KM12,> 100 µM (inactive)
same,GI50,DLD-1,> 100 µM (inactive)
same,GI50,SNB-19,> 100 µM (inactive)
same,GI50,HCC 2998,> 100 µM (inactive)
same,GI50,MOLT-4,> 100 µM (inactive)
same,GI50,CAKI-1,> 100 µM (inactive)
same,GI50,SNB-78,> 100 µM (inactive)
same,GI50,SF-539,> 100 µM (inactive)
same,GI50,DMS-273,> 100 µM (inactive)
same,GI50,OVCAR-8,> 100 µM (inactive)
same,GI50,SR,> 100 µM (inactive)
